Reference: PMC8460738, “Berberine is an insulin secretagogue targeting the KCNH6 potassium channel” (Nature Communications, 2021)

Target: T1, KCNH6 potassium channel (Homo sapiens, UniProt Q9H252)
T1 construct: human KCNH6 (WT cDNA) transfected in HEK293T cells; FLAG-tagged for pull-down
T1 sequence (Q9H252 1-958): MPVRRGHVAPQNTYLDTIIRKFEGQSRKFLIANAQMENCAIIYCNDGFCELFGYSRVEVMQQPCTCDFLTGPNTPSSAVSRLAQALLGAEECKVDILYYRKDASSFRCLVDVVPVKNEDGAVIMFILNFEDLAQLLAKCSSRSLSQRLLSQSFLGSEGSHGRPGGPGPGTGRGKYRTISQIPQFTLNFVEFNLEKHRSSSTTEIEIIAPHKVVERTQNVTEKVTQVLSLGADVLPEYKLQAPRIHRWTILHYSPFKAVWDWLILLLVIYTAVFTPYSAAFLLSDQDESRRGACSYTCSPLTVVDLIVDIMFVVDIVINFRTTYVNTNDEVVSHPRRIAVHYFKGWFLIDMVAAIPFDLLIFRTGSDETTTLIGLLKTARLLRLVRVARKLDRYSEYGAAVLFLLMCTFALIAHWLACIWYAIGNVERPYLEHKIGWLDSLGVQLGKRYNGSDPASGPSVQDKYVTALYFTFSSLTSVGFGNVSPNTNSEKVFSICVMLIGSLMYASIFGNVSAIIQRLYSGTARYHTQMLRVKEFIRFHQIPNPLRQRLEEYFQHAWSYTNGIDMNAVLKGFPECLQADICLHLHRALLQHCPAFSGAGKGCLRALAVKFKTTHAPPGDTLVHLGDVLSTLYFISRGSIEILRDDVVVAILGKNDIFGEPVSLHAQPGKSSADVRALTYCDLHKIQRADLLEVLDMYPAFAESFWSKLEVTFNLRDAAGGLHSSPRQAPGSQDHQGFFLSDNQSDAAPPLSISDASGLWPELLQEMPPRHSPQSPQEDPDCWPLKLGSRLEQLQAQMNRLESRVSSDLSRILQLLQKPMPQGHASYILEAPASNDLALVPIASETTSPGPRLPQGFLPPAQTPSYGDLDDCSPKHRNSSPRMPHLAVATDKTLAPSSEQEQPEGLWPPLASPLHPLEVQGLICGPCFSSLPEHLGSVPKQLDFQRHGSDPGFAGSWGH
Assay: whole-cell patch clamp of KCNH6-transfected HEK293T cells; affinity-bead pull-down from cell extract competed by free BBR
Assay type: cell-based

**Q.** `COc1ccc2cc3[n+](cc2c1OC)CCc1cc2c(cc1-3)OCO2` [BBR, berberine] was tested. Which IC50 did it give?
**A.** 1010 ± 40 nM
